This note sets out measurements from patent publication US11390606B2, “Pyridazinone compounds and uses thereof” (Edgewise Therapeutics, Inc., priority 2018, dated 2022).

The test has as its target T1, skeletal myofibrils (Rabbit Psoas), myosin ATPase activity.
T1 construct: Rabbit Psoas Prep 11 (0.25 mg/mL)
Description: Skeletal Myofibril ATPase Assay. Conditions: skeletal myofibrils (Rabbit Psoas 0.25 mg/mL), PK/LDH-coupled NADH absorbance at 340 nm. The format is biochemical. As for the experimental part: Overview: Myosin ATPase activity is assessed by using a coupled reaction system, in which ADP generated by the myosin ATPase function is coupled to the disappearance of NADH through the pyruvate kinase/lactate dehydrogenase (PK-LDH) system. Myosin ATPase activity produces ADP, which is used as a substrate for PK to produce pyruvate and regenerate ATP. The pyruvate is then used as a substrate by LDH to oxidize NADH to NAD+. The rate of the reaction is monitored through the time-dependent disappearance of NADH using absorbance at 340 nm. Inhibition of ATPase activity by the assayed compounds is indicated by a reduced rate of NADH loss, relative to vehicle-treated controls, over the experimental time window. To assess the selectivity of the assayed compounds for skeletal myofibrils, the compounds are counter-screened in cardiac myofibrils.
Materials: The following stock solutions and reagents were used in the Skeletal Myofibril ATPase Assay:
Stock Solutions of pCa buffer. Combine PIPES, CaCl2, and EGTA solutions with 70 mL of water. Adjust pH to 7.0 and bring final volume to 100 mL.
Buffer A & Buffer B. Buffers were stored on ice until use.
Skeletal Myofibril ATPase Assay Procedure: BSA, ATP, NADH, PEP, and DTT solutions were thawed at room temperature, then transferred to ice. Pellet-frozen myofibrils were transferred with approximately twice the required volume into a sufficiently large tube and capped. Myofibrils were thawed by rolling in a water bath for approximately 15 min at room temperature and cooled on ice. Buffers A and B were prepared by adjusting volumes as necessary for required number of wells and stored on ice. 0.5 μL of the compounds to be assayed were added into wells. 25 μL of Buffer A was dispensed into the wells, followed by 25 μL of Buffer B. The wells were measured for absorbance at 340 nm, using a kinetic protocol in which the wells are read every 1.5-2 min for 45 min. The slope of the data was approximated by subtracting the minimum absorbance value from the maximum value for each well. This was accomplished either in the SoftMax Pro software or in a spreadsheet program such as Excel. Using GraphPad Prism 8.0, the data was normalized by assigning a value of 100% to the 1% DMSO vehicle wells. Typically, a normalized 0% value was simply assigned to a (Max−Min) value of 0. The normalized data was fit to a Four Parameter Logistic sigmoidal equation, constraining the bottom to be 0 or greater. Compounds of Table 1 to 4 were tested and results of the assay appear in Table 5 herein. A=IC50 is less than or equal to 10 μM; B=IC50 is greater than 10 μM and less than 100 μM; C=IC50 is greater than 100 μM.

Consider `N#CCOc1ccc(-c2ccc(=O)n(Cc3ccc(Cl)cc3)n2)cc1` [Compound 108, 2-(4-(1-(4-chlorobenzyl)-6-oxo-1,6-dihydropyridazin-3-yl)phenoxy)acetonitrile], for which the IC50 is less than 10 µM.

For the compound `CC(=O)Nc1ncc(-c2ccc(=O)n(Cc3ccc(Cl)cc3)n2)cn1` [Compound 26, N-(5-(1-(4-chlorobenzyl)-6-oxo-1,6-dihydropyridazin-3-yl)pyrimidin-2-yl)acetamide], the half-maximal inhibitory concentration (IC50) is less than 10 µM.

Turning to `COc1cc(F)ccc1-c1ccc(=O)n(Cc2ccc(Cl)cc2)n1` [Compound 316, 2-(4-chlorobenzyl)-6-(4-fluoro-2-methoxyphenyl)pyridazin-3(2H)-one], the IC50 is greater than 100 µM.

Compound `NC(=O)c1ccc(-c2ccc(=O)n(Cc3ccc(Cl)cc3)n2)cc1` [Compound 114, 4-(1-(4-chlorobenzyl)-6-oxo-1,6-dihydropyridazin-3-yl)benzamide] gave an IC50 of 10 to 100 µM.

For the compound `O=C1CCCN1c1ncc(-c2ccc(=O)n(Cc3ccc(Cl)cc3)n2)cn1` [Compound 45, 2-(4-chlorobenzyl)-6-(2-(2-oxopyrrolidin-1-yl)pyrimidin-5-yl)pyridazin-3(2H)-one], the IC50 was in the range of 10 to 100 µM.

For `O=c1ccc(-c2cnc(OCC3(F)COC3)nc2)nn1Cc1ccc(Cl)cc1` [Compound 22, 2-(4-chlorobenzyl)-6-(2-((3-fluorooxetan-3-yl)methoxy)pyrimidin-5-yl)pyridazin-3(2H)-one], the IC50 is less than 10 µM.

Compound `CN(CC(F)(F)F)c1ncc(-c2ccc(=O)n(Cc3ccc(F)cc3F)n2)cn1` [Compound 29, 2-(2,4-difluorobenzyl)-6-(2-(methyl(2,2,2-trifluoroethyl)amino)pyrimidin-5-yl)pyridazin-3(2H)-one] had an IC50 of less than 10 µM.

The compound `O=c1ccc(-c2cnc(N3CC(C(F)(F)F)C3)nc2)nn1Cc1ccc(Cl)cc1` [Compound 4, 2-(4-chlorobenzyl)-6-(2-(3-(trifluoromethyl)azetidin-1-yl)pyrimidin-5-yl)pyridazin-3(2H)-one] registered an IC50 of less than 10 µM.

The compound `O=c1ccc(-c2cnc(OCC(F)(F)F)nc2)nn1Cc1cc(F)ccc1F` [Compound 40, 2-(2,5-difluorobenzyl)-6-(2-(2,2,2-trifluoroethoxy)pyrimidin-5-yl)pyridazin-3(2H)-one] came in with an IC50 of less than 10 µM.

As to `CN(C)S(=O)(=O)c1ccc(-c2ccc(=O)n(Cc3ccc(Cl)cc3)n2)cc1` [Compound 120, 4-(1-(4-chlorobenzyl)-6-oxo-1,6-dihydropyridazin-3-yl)-N,N-dimethyl-benzenesulfonamide], the half-inhibitory concentration (IC50) is greater than 100 µM.

`O=c1ccc(-c2cnc(OCC(F)(F)F)nc2)nn1Cc1c(F)cccc1F` [Compound 41, 2-(2,6-difluorobenzyl)-6-(2-(2,2,2-trifluoroethoxy)pyrimidin-5-yl)pyridazin-3(2H)-one] displayed an IC50 of less than 10 µM.

In turn, `O=c1ccc(-c2cnc(OCC3COC3)nc2)nn1Cc1ccc(Cl)cc1` [Compound 33, 2-(4-chlorobenzyl)-6-(2-(oxetan-3-ylmethoxy)pyrimidin-5-yl)pyridazin-3(2H)-one] showed an IC50 of less than 10 µM.

In the case of `O=C1Cc2cc(-c3ccc(=O)n(Cc4ccc(Cl)cc4)n3)ccc2N1` [Compound 122, 5-(1-(4-chlorobenzyl)-6-oxo-1,6-dihydropyridazin-3-yl)indolin-2-one], the IC50 is greater than 100 µM.

Compound `O=c1ccc(-c2ccc(OC(F)F)nc2)nn1Cc1ccc(Cl)cc1` [Compound 19, 2-(4-chlorobenzyl)-6-(6-(difluoromethoxy)pyridin-3-yl)pyridazin-3(2H)-one] showed an IC50 of less than 10 µM.

In turn, `O=c1ccc(-c2cnc(OCC(F)(F)F)nc2)nn1Cc1ccc(O)c(Cl)c1` [Compound 7, 2-(3-chloro-4-hydroxybenzyl)-6-(2-(2,2,2-trifluoroethoxy)pyrimidin-5-yl)pyridazin-3(2H)-one] yielded an IC50 of less than 10 µM.

`O=c1ccc(-c2cnc(OCC(F)(F)F)nc2)nn1Cc1cccc(F)c1` [Compound 35, 2-(3-fluorobenzyl)-6-(2-(2,2,2-trifluoroethoxy)pyrimidin-5-yl)pyridazin-3(2H)-one]: the IC50 was less than 10 µM.

Take `O=c1ccc(-c2cnc(NC3CC3)nc2)nn1Cc1ccc(Cl)cc1` [Compound 8, 2-(4-chlorobenzyl)-6-(2-(cyclopropylamino)pyrimidin-5-yl)pyridazin-3(2H)-one]: the IC50 was less than 10 µM.

In the case of `O=c1ccc(-c2cnc(OCC(F)(F)F)nc2)nn1Cc1ccc(Cl)cc1` [Compound 5, 2-(4-chlorobenzyl)-6-(2-(2,2,2-trifluoroethoxy)pyrimidin-5-yl)pyridazin-3(2H)-one], the IC50 is less than 10 µM.

Consider `O=c1ccc(-c2cnc(OCC(F)(F)F)nc2)nn1Cc1ccc(F)cc1F` [Compound 39, 2-(2,4-difluorobenzyl)-6-(2-(2,2,2-trifluoroethoxy)pyrimidin-5-yl)pyridazin-3(2H)-one], for which the IC50 is less than 10 µM.

The compound `O=c1ccc(-c2cnc(OCC(F)(F)F)nc2)nn1Cc1cc(Cl)ccc1O` [Compound 50, 2-(5-chloro-2-hydroxybenzyl)-6-(2-(2,2,2-trifluoroethoxy)pyrimidin-5-yl)pyridazin-3(2H)-one] gave an IC50 of less than 10 µM.

Regarding `O=c1ccc(-c2cnc(OCC(F)(F)F)nc2)nn1Cc1cccc(F)c1F` [Compound 38, 2-(2,3-difluorobenzyl)-6-(2-(2,2,2-trifluoroethoxy)pyrimidin-5-yl)pyridazin-3(2H)-one], the IC50 was less than 10 µM.

`O=c1ccc(-c2ccc(Cl)cc2)nn1Cc1cccc(Cl)c1` [Compound 307, 2-(3-chlorobenzyl)-6-(4-chlorophenyl)pyridazin-3(2H)-one] gave an IC50 of less than 10 µM.

Consider `O=c1ccc(-c2ccc(Cl)cc2)nn1Cc1ccccc1` [Compound 302, 2-benzyl-6-(4-chlorophenyl)pyridazin-3(2H)-one], for which the IC50 is less than 10 µM.

`O=c1ccc(-c2ccc(Cl)cc2)nn1Cc1ccccc1F` [Compound 309, 6-(4-chlorophenyl)-2-(2-fluorobenzyl)pyridazin-3(2H)-one] registered an IC50 of less than 10 µM.

`COc1ccc(Cn2nc(-c3ccc(SC)cc3)ccc2=O)cc1` [Compound 201, 2-(4-methoxybenzyl)-6-(4-(methylthio)phenyl)pyridazin-3(2H)-one] registered an IC50 greater than 100 µM.

The compound `COCCOc1ccc(-c2ccc(=O)n(Cc3ccc(Cl)cc3)n2)cc1` [Compound 106, 2-(4-chlorobenzyl)-6-(4-(2-methoxyethoxy)phenyl)pyridazin-3(2H)-one] returned an IC50 of less than 10 µM.

In turn, `O=c1ccc(-c2cnc(NCCOC(F)F)nc2)nn1Cc1ccc(Cl)cc1` [Compound 46, 2-(4-chlorobenzyl)-6-(2-((2-(difluoromethoxy)ethyl)amino)pyrimidin-5-yl)pyridazin-3(2H)-one] displayed an IC50 of less than 10 µM.

The compound `O=c1ccc(-c2cnc(OCC(F)(F)F)nc2)nn1Cc1ccc(CO)cc1` [Compound 48, 2-(4-(hydroxymethyl)benzyl)-6-(2-(2,2,2-trifluoroethoxy)pyrimidin-5-yl)pyridazin-3(2H)-one] returned an IC50 of less than 10 µM.

`CC(=O)Nc1ccc(-c2ccc(=O)n(Cc3ccc(Cl)cc3)n2)cc1` [Compound 107, N-(4-(1-(4-chlorobenzyl)-6-oxo-1,6-dihydropyridazin-3-yl)phenyl)acetamide] had an IC50 of less than 10 µM.

`CC1(C)C(=O)Nc2ccc(-c3ccc(=O)n(Cc4ccc(Cl)cc4)n3)cc21` [Compound 121, 5-(1-(4-chlorobenzyl)-6-oxo-1,6-dihydropyridazin-3-yl)-3,3-dimethylindolin-2-one] displayed an IC50 greater than 100 µM.

The compound `O=c1ccc(-c2ccc(Cl)cc2)nn1Cc1ccc(F)cc1` [Compound 306, 6-(4-chlorophenyl)-2-(4-fluorobenzyl)pyridazin-3(2H)-one] returned an IC50 of less than 10 µM.

`O=c1ccc(-c2ccc(OCC(F)F)cc2)nn1Cc1ccc(Cl)cc1` [Compound 102, 2-(4-chlorobenzyl)-6-(4-(2,2-difluoroethoxy)phenyl)pyridazin-3(2H)-one] gave an IC50 of less than 10 µM.

In the case of `Cc1ccc(-c2ccc(=O)n(Cc3ccc(F)cc3)n2)cc1` [Compound 236, 2-(4-fluorobenzyl)-6-(p-tolyl)pyridazin-3(2H)-one], the concentration for half-maximal inhibition (IC50) was less than 10 µM.

Consider `O=c1ccc(-c2ccc(OCC3(F)COC3)nc2)nn1Cc1ccc(Cl)cc1` [Compound 21, 2-(4-chlorobenzyl)-6-(6-((3-fluorooxetan-3-yl)methoxy)pyridin-3-yl)pyridazin-3(2H)-one], for which the IC50 is less than 10 µM.
